# Laboratory results as given in US10807958B2, “1,4-bis(3-aminopropyl)piperazine derivative and its use” (INSERM (Institut National de la Sante et de la Recherche …, priority 2015, dated 2020).
# Legend:
# [1] = tested on: Neuroblastoma SKNSH-SY5Y cells expressing the human Tau isoform 412; test: 2D gel electrophoresis of Tau isovariants in treated cells; format: cell-based; conditions: 10 μM, vs control conditions, FIG. 2
# Source text: Pan-Tau and phospho-dependent Tau antibodies included Tau-Nter (M19G, 1/10 000, Sergeant et al., 1999), Tau-Cter (1/10 000, Sergeant et al., 1999, Le Freche et al., 2012), Tau-1 (1/5000, Merck Millipore), S199P (directed against the phospho-serine 199, 1/4000, Sergeant et al., 1999), Tau-Phospho S396 (directed against the phosphor-serine 396, 1/10000, Lifetechnologies), Tau-Phospho 404 (1/10 000, Lifetechnologies), 422 (clone 2H9, a homemade monoclonal antibody developed against a phospho-peptide containing the phosphorylated serine 422 residue of Tau, numbering according to the longest human brain Tau-441 isoform), AT8 (1/1000, Thermo Scientific), AT270 (1/2000, Thermo Scientific), AT100 (1/1000, Thermo Scientific). Neuron specific enolase (1/10 000), β-actin (1/5000) and β-tubulin (1/10 000) were from Sigma-Aldrich.
# Human neuroblastoma cell line SKNSH-SY5Y cells expressing the human Tau isoform 412 (with the exon 2 and 10 encoding sequences) (or SY5Y-Tau46) was as previously described in Bretteville et al., 2009. […]
# The effect of the compound of Formula I on Tau phosphorylation was analyzed in vitro and in vivo. […]
# Expression and total phosphorylation was assessed by 1D and 2D gel electrophoresis using phospho-dependent and pan-Tau antibodies (FIGS. 1 and 2). […]
# Thy-Tau22 mice = test: Morris water maze spatial memory, Thy-Tau22 mice; format: in vivo, mouse; conditions: 4 months
# Source text: Wild-type C57BL/6J animals of 3 months were purchased at Charles Rivers Laboratories (France) and were allow to acclimate in the animal facility for at least one week before any treatment. Thy-Tau22 transgenic colonies (C57BL/6J genetic background) were obtained by crossing heterozygous Thy-Tau22 males with C57BL/6 WT females. […] In this model, a progressive development of NFT is observed in the hippocampus and amygdala, which parallels behavioral impairments (Schindowski et al., 2006). Furthermorever, in the hippocampus, hyper- and abnormally phosphorylated Tau species accumulate within the somato-dendritic area (Schindowski et al., 2006).
# For animal treatment, animals were randomly distributed and the compound of Formula I was given in the drinking water at final concentration of 0.5 or 1 mg/kg. Drinking bottles were changed once per week, volume consumption was measured along the treatment period. Food consumption and body weight were assessed. In wild-type animals the pilot study of drug treatment was performed for one month to establish the innocuousness of the treatment with the compound of Formula I. This was based on the physiological, social and behavioural assessments. Thy-Tau22 males were treated for 4 months starting at 3 month old. All protocols were approved by the local ethics committee (n^∘342012, CEEA).
# Before any behavioral test, exploratory and locomotion of treated and untreated animal were evaluated in a Open field (OF) 25 cm×25 cm arena. Four acquisitions in joined arena were performed simultaneously. Each mouse was placed in the arena and allowed to explore for at least 5 min. Parameters including distance, speed, velocity were acquired by video recording using the EthoVision video tracking equipment and software (Noldus, Information Technology, Paris, France) in a dedicated room. The anxiety, which could interfere with memory test, was evaluated by the elevated plus maze (EPM). […] Locomotion, distance, speed and velocity were measured as well as the number of arm entries, time spent in the open versus closed arms, percentage of open arm entries and time per minute spent in the open arms on a total of 5 min test.
# Spatial learning and memory abilities were assessed in a standard hidden-platform acquisition and retention version of the Morris water maze task (Van der Jeugd et al., 2013). […] The time required to find the hidden rescue platform (escape latency) was used as a spatial learning index and was recorded using the Ethovision XT video tracking system (Noldus France). Swimming speed and total distance were also measured. 72 h after the acquisition phase, the hidden platform was removed and spatial memory was evaluated in a 60 s probe trial. […]
compound,measurement,setting,value
"CC(C)CN(CCCN1CCN(CCCNc2c3c(nc4ccccc24)CCCC3)CC1)CC(C)C [compound of Formula I, N-[3-(4-{3-[Bis(2-methylpropyl)amino]propyl}piperazin-1-yl)propyl]-1,2,3,4-tetrahydroacridin-9-amine]","Tau isovariants at the neutral pI, N- and C-terminal directed pan-Tau antibodies",[1],reduction
same,"Tau isovariants at the neutral pI, Tau396 phospho-dependent antibody (S396)",[1],reduction
same,"probe test, spatial memory in Thy-Tau22 mice","Thy-Tau22 mice; 0.5 mg/kg, probe test 72 hours after last learning day",preserved
same,development of spatial memory impairments (ANOVA statistical analysis),"Thy-Tau22 mice; Thy-Tau22 mice, 0.5 mg/kg",protected or preserved
same,time spent in the target quadrant versus the others,"Thy-Tau22 mice; Thy-Tau22 treated, 0.5 mg/kg, untreated spent equal % of time, FIG. 4B",more time
same,learning phase (distance to reach the platform) between the animal groups,"Thy-Tau22 mice; WT and Thy-Tau22, treated or not with 0.5 mg/kg, FIG. 4A",not significantly different
